# Measurements from patent publication US20200155532A1, “METHOD FOR TREATING VIRAL INFECTIONS WITH LOPERAMIDE” (priority 2018, published 2020).
# Tested on: herpes viral infections
# Assay: treating herpes outbreaks with loperamide taken by mouth
# Type: in vivo
# Details: herpes outbreak; patient taking loperamide
# Excerpt: Referring to FIG. 1, the present invention may include a new use of loperamide 100 as an anti-viral agent. Herpes, which erupts during stress and may include repeated flare-ups over, sometimes, weeks may be treated with the new use of loperamide 100 disclosed herein, which tends to eliminate this recycling when taken at every flare-up. Specifically, the new use 100 of loperamide as an anti-viral agent may have the following steps: at the onset of symptoms, the user takes the recommended amount at the recommended time intervals, such as two 2 mg loperamide tablets four or five times a day, in step 110; if pain persists, the user may review the dosage, in step 120; after 72 hours, when pain has subsided and blisters are gone or only thin scabs, the patient may discontinue use in step 130; magnesium hydroxide may be used for bowel function during treatment, in step 140; and in the case of a new flare-up, the user-patient may repeat the dosage cycle in step 150.
smiles,measurement,value
CN(C)C(=O)C(CCN1CCC(O)(c2ccc(Cl)cc2)CC1)(c1ccccc1)c1ccccc1 [loperamide],effect on the virus's activity,stop the virus's activity
same,time to full recovery,three
same,time to stop the pain,≤ 30 min
